Laboratory results taken from patent US20120231015A1, “FRAGILE X MENTAL RETARDATION PROTEIN (FMRP), COMPOSITIONS, AND METHODS RELATED THERETO” (EMORY UNIVERSITY, priority 2009, published 2012).
“Also recorded” adds a separate entry of the source.

Key:
[1] = tested on: primary hippocampal neurons; assay: Constitutive AMPAR internalization assay; assay type: cell-based, mouse; conditions: WT neurons
cortical SNS = assay: Metabolic labeling of cortical SNS with [35S]methionine (synaptic translation rates); assay type: cell-based, mouse; conditions: for translation rates (amino acid incorporation): antagonist 50 μM; for translation rates ([35S] incorporation in 5 min): antagonist 10 μM
Description: (§1) Cortical SNS were prepared as described previously (Muddashetty et al., 2007) and treated with the indicated antagonists or solvent for 5 min at 37° C., for some experiments followed by DHPG (100 μM) for 15 min at 37° C. as indicated, and with puromycin (2 mM) for 30 min at 37° C. Metabolic labeling was performed with 100 μCi Pro-Mix, L-(35S) in vitro cell labeling mix (GE Healthcare) for 5 min. Triplicate samples from time point 0 and 5 min were washed once in homogenization buffer, followed by lysis (100 mM Tris-HCl, pH 7.4, 150 mM NaCl, 0.5% deoxycholate, and 1% Triton X-100, supplemented with proteinase inhibitors) and TCA precipitation. 35S-incorporation levels were estimated by scintillation counting.

p110beta mRNA = p110beta mRNA in polysomal fractions of sucrose gradients, cortical SNS; assay type: cell-based, mouse
Description: Gradient preparation, centrifugation, fractionation, RNA purification, and qRT-PCRs were performed as described previously (Muddashetty et al., 2007).
as §1, with “[…],” for “for some experiments followed by DHPG (100 μM) for 15 min at 37° C. as indicated,”

PI3K (p110beta) = assay: In vitro PI3K assay with immunoprecipitated p110beta from treated cortical synaptoneurosomes (SNS); assay type: cell-based, mouse
Description: In vitro PI3K assays were performed as described previously (Ye et al., (2000) Cell 103:919-930) using p110beta antibody. In vitro extracellular signal-regulated kinase (ERK) activity assays were performed using the p44/42 MAP Kinase Assay kit from Cell Signaling Technology according to the manual. HEK293T cells were cultured in DMEM supplemented with 10% FBS. Fmr1-specific siRNA was transfected using LF2000 (Invitrogen) according to the manual. At 48 h after transfection, cells were scraped from the dish with PBS, divided into two equal parts for PI3K and ERK activity assays, respectively. […] Cortical synaptoneurosomes (SNS) were prepared as described previously (Muddashetty et al., (2007) J Neurosci 27:5338-5348.). SNS were split in two equal parts for PI3K and ERK activity assays. Cells and SNS were lysed in kinase assay buffers (for PI3K assay: 50 mM Tris-HCl, pH 7.4, 40 mM NaCl, 1 mM EDTA, 0.5% Triton X-100, 1.5 mM Na3VO4, 50 mM NaF, 10 mM sodium pyrophosphate, and 10 mM sodium β-glycerol phosphate, supplemented with proteinase inhibitors; for ERK activity assay: lysis buffer provided by Cell Signaling Technology). Lysates were cleared by centrifugation, and protein concentrations were determined by the Bradford method. For both kinase assays, the same amount of protein was used for wild-type (WT) and Fmr1 KO SNS or sifmr1 knockdown (KD) and sictr HEK293T cells, respectively. For measuring PI3K activity following various treatments, SNS were incubated for 10 min at 37° C. with either 100 μM (S)-3,5-dihydroxyphenylglycine (DHPG) or 10 μM 2-methyl-6-(phenylethynyl)-pyridine (MPEP) or for 1 h at 37° C. with tat-mGluR5-CT or tat-mGluR5-MUT peptides (5 μM) before lysis. For PI3K assays with cortical neurons, cells at 11d in vitro (DIV) were transfected with 10 μl of control adenovirus or adenovirus carrying short-hairpin PIKE-L (as described previously by Tang et al., (2008) Nat Cell Biol 10:698-706.) for 48 h. PI3K assays were performed with 300 μg of protein as described above. To confirm PIKE-L knockdown, 80 μg of protein was used for Western blot analyses using anti-PIKE-L antibody.

p110beta = p110beta protein levels by Western blot in cortical SNS; assay type: cell-based, mouse; conditions: DHPG 15 min, 50 μM
Description: SDS-PAGE and Western blots were performed as described previously (Muddashetty et al., 2007) and quantified using NIH ImageJ. Signal intensities of p110beta- and FMRP-specific bands were normalized to tubulin signal on the same blot. Signal intensities of phospho-proteins were normalized to total levels of the respective protein on the same blot. For this purpose, Western blots were stripped after detection with the phospho-specific antibodies using 100 mM β-mercaptoethanol and 2% SDS in 62.5 mM Tris-HCl, pH 6.8, at 50° C. for 30 min and, after extensive washing, detected with the respective antibody specific for the total protein.
as §1, with “[…],” for “for some experiments followed by DHPG (100 μM) for 15 min at 37° C. as indicated,”

PDK1 = conditions: hippocampal slices from Fmr1 KO mice; cited from earlier work
rat hippocampal neurons = conditions: siRNA-mediated FMRP deficiency; cited from earlier work

## O=c1cc(N2CCOCC2)oc2c(-c3ccccc3)cccc12 [LY294002, 2-(4-morpholinyl)-8-phenyl-1(4H)-benzopyran-4-one]
[1]; LY294002 50 μM for 1 h
  constitutive endocytosis of AMPARs in distal dendrites (median): 35.3
Cortical SNS; Fmr1 KO SNS
  translation rates (amino acid incorporation): could specifically rescue the excessive synaptic translation; also recorded: significantly reduced amino acid incorporation rates

## COc1ccc(C[C@H](N)C(=O)N[C@H]2[C@@H](O)[C@H](n3cnc4c(N(C)C)ncnc43)O[C@@H]2CO)cc1 [puromycin]
p110beta mRNA; SNS, puromycin 2 mM, 30 min at 37° C.
  association of p110beta mRNA with synaptoneurosomal polysomes: sensitive to puromycin treatment

## N[C@H](C(=O)O)c1cc(O)cc(O)c1 [DHPG, (S)-3,5-dihydroxyphenylglycine]
p110beta mRNA; Fmr1 KO SNS, DHPG 15 min, 50 μM
  p110beta mRNA in puromycin-sensitive polysomal fractions (translation): occluded
p110beta mRNA; WT SNS, DHPG 15 min, 50 μM
  p110beta mRNA in puromycin-sensitive polysomal fractions: induced a significant shift of p110beta mRNA into puromycin-sensitive fractions; also recorded: leads to a shift of p110beta mRNA into puromycin-sensitive fractions
PI3K (p110beta); Fmr1 KO SNS, DHPG 100 μM, 10 min
  PI3K activity: failed to activate PI3K; also recorded: significant reduction of PI3K activity; also recorded: decreased PI3K activity
PI3K (p110beta); WT SNS, DHPG 100 μM, 10 min
  PI3K activity: twofold increase
p110beta; Fmr1 KO SNS
  p110beta protein expression: occluded; also recorded: does not increase protein expression
p110beta; WT SNS
  p110beta protein levels: led to increased p110beta protein levels; also recorded: increases p110beta protein levels
Cortical SNS; Fmr1 KO SNS, no antagonist
  DHPG-induced translational activation: occluded
PDK1
  phosphorylation of PDK1: does not induce the phosphorylation of PDK1

## Cc1cc(C(=O)O)ccc1[C@H](N)C(=O)O [LY367385]
Cortical SNS; Fmr1 KO SNS
  translation rates ([35S] incorporation in 5 min): reduced synaptic Fmr1 KO translation; also recorded: significantly decreased translation rates

## N[C@@H](CCCP(=O)(O)O)C(=O)O [APV]
Cortical SNS; Fmr1 KO SNS
  translation rates (amino acid incorporation): failed to reduce augmented translation in KO
Cortical SNS; WT and Fmr1 KO SNS, APV 50 μM
  translation, genotype dependence of effect: affected translation similarly across genotypes

## O=c1cc(N2CCNCC2)oc2c(-c3ccccc3)cccc12 [LY303511, 2-(1-piperazinyl)-8-phenyl-4H-1-benzopyran-4-one]
Cortical SNS; SNS, inactive analog of LY294002
  translation rates: did not show any effect; also recorded: did not alter translation rates

## Cc1cccc(C#Cc2ccccc2)n1 [MPEP, 2-methyl-6-(phenylethynyl)-pyridine]
PI3K (p110beta); Fmr1 KO SNS, MPEP 10 μM, 10 min at 37° C.
  PI3K activity: significantly reduced PI3K function; also recorded: significantly reduces PI3K activity
PI3K (p110beta); WT SNS, MPEP 10 μM, 10 min at 37° C.
  PI3K activity: no significant effect
Rat hippocampal neurons
  levels of internalized AMPARs: rescued increased levels of internalized AMPARs
Cortical SNS; Fmr1 KO SNS
  translation rates ([35S] incorporation in 5 min): reduced synaptic Fmr1 KO translation; also recorded: significantly decreased translation rates

## N#CC(=C(N)Sc1ccccc1N)C(C#N)=C(N)Sc1ccccc1N [U0126, 1,4-diamino-2,3-dicyano-1,4-bis(o-aminophenylmercapto)butadiene]
[1]; U0126 20 μM for 1 h
  constitutive endocytosis of AMPARs in distal dendrites (median): 43.8
Cortical SNS; Fmr1 KO SNS, DHPG 100 μM, 15 min
  DHPG-induced translational activation after antagonist pretreatment: did not rescue DHPG-stimulated translation; also recorded: but not by ERK1/2 inhibition
Cortical SNS; WT SNS, DHPG 15 min, 100 μM
  DHPG-induced translational activation after antagonist pretreatment: abolished DHPG-induced translational increase; also recorded: abolish
Cortical SNS; WT and Fmr1 KO SNS, U0126 20 μM
  translation rates, genotype dependence of effect: reduced protein synthesis levels independently of genotype to the same extent; also recorded: did not show a genotype-specific effect on translation rates
